The target in the assay is T1, Kv1.5 potassium channel (Homo sapiens, UniProt P22460).
T1 construct: expressed in transfected cells
The assay can be described thus: Whole-cell patch clamp electrophysiological recording of Kv1.5 currents in CHO cells. The format is cell-based. To be noted: CHO cells stably expressing Kv1.5, whole-cell voltage clamp, holding potential −80 mV, one depolarization every 10 seconds. Here is the method: Electrophysiological recordings of potassium currents in Chinese hamster ovary cells stably expressing the gene construct for the Kv1.5 potassium channel subunit were performed using the whole cell configuration of the patch clamp technique (Hamill et al., Pflugers Archiv 391:85, 1981). Cell lines expressing Kv1.5 were prepared using standard techniques known to those skilled in the art. Cells were plated on glass coverslips at a density of 2×10^4 cells/coverslip and used within 24-48 hours. Solutions used for electrophysiological recordings were as follows. Extracellular bathing solutions typically contain (in mM) 132 NaCl, 5.4 KCl, 1.8 CaCl2, 0.8 MgCl2, 10 HEPES, 5 glucose at pH 7.3. Electrode pipette solutions (intracellular solution) for measuring Kv1.5 typically contain (in mM) 100 KF, 40 KCl, 5 NaCl, 2 MgCl2, 5 EGTA, 10 HEPES and 5 glucose at pH 7.4, 295 mOsm and has a resistance of about 1-2 MΩ. The coverslips were placed in a small chamber (volume ˜200 μl) on the mechanical stage of an inverted microscope and perfused (approximately 2 ml/min) with extracellular recording solution. Drug was applied using a series of narrow-bore glass capillary tubes (inner diameter ˜100 μm) positioned approximately 200 μm from the cell.
As soon as the current recording was stable, a compound representative of the present invention was superfused over the cell until steady-state block was observed. Using this technique, the effects of the compound on peak and steady-state current were determined at progressively increasing compound concentrations.
The testing results of selected compounds from Table 2 using this assay and the techniques described above are reported in Table 3 as the percent inhibition of Kv1.5 potassium channel currents at a single concentration of 0.1 μM.
For orientation: In patch-clamp work, channel activity is measured electrically.

Setting [1] is: read-out: Peak Current Inhibition at 0.1 μM (%).
Where [2] appears, read: read-out: Steady-state Current Inhibition at 0.1 μM (%).

This passage reports inhibition results from patent publication US6620849B2, “Potassium channel inhibitors” (ICAFEN, Inc., priority 2000, dated 2003).

Read-outs that look alike come from different tables or passages of the source.

In general, inhibition refers to the drop in the measured response relative to a control, in per cent.

T1 sequence (P22460 whole entry): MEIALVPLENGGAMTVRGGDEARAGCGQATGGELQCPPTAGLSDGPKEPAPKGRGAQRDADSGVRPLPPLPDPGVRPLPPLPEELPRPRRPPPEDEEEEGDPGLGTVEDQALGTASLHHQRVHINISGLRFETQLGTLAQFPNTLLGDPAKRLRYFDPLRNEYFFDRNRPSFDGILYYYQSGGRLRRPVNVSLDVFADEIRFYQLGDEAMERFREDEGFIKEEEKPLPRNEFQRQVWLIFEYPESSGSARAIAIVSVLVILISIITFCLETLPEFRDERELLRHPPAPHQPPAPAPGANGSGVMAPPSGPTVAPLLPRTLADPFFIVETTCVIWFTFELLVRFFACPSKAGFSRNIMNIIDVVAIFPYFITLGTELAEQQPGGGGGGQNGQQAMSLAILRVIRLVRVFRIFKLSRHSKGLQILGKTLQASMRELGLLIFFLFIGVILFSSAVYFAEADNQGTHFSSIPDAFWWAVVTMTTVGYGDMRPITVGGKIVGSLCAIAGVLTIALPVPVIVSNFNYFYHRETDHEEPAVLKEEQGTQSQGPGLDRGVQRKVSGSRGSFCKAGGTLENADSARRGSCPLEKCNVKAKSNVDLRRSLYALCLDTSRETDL

For the compound `Cc1cccc(CN(C(=O)C2CC2c2ccccc2)c2ccc3c(c2)C(NS(=O)(=O)c2ccccc2Cl)CCC3)n1` (stereo not shown) [Example 9], the inhibition at 0.1 µM by setting is: under setting [1], 60%; under setting [2], 82%.
Taken in the same sequence, the figures for `Cn1ccnc1CN(C(=O)[C@@H]1C[C@H]1c1ccc(F)cc1)c1ccc2c(c1)[C@@H](NS(=O)(=O)c1cccc(F)c1)CCC2` [Example 30] were 80% and 93%.
On to `Cc1cccc(CN(C(=O)[C@@H]2C[C@H]2c2ccccc2)c2ccc3c(c2)[C@@H](NS(=O)(=O)c2ccc(F)cc2)CCC3)n1` [Example 13], for which the inhibition at 0.1 µM by setting is: under setting [1], 45%; under setting [2], 82%.
Taken in the same sequence, the figures for `Cn1ccnc1CN(C(=O)[C@@H]1C[C@H]1c1ccc(F)cc1)c1ccc2c(c1)[C@@H](NS(=O)(=O)c1ccc(F)cc1)CCC2` [Example 31] were 70% and 84%.
Taken in the same sequence, the figures for `CCc1ccc(S(=O)(=O)N[C@H]2CCCc3ccc(N(Cc4nccn4C)C(=O)[C@@H]4C[C@H]4c4ccc(Cl)cc4)cc32)cc1` [Example 48] were 70% and 95%.
`Cn1ccnc1CN(C(=O)[C@@H]1C[C@H]1c1ccccc1)c1ccc2c(c1)[C@@H](NS(=O)(=O)c1ccccc1)CCC2` [Example 6]: the inhibition at 0.1 µM by setting is: under setting [1], 72%; under setting [2], 78%.
Taken in the same sequence, the figures for `Cn1ccnc1CN(C(=O)[C@H]1C[C@@H]1c1ccc(Cl)cc1)c1ccc2c(c1)[C@@H](NS(=O)(=O)c1ccc(F)cc1)CCC2` [Example 25] were 35% and 69%.
Consider `Cn1ccnc1CN(C(=O)[C@@H]1C[C@H]1c1ccccc1)c1ccc2c(c1)[C@@H](NS(=O)(=O)c1ccc(Cl)cc1)CCC2` [Example 4], for which the inhibition at 0.1 µM runs as follows: under setting [1], 64%; under setting [2], 76%.
Taken in the same sequence, the figures for `Cn1ccnc1CN(C(=O)[C@H]1C[C@@H]1c1ccc(Cl)cc1)c1ccc2c(c1)[C@H](NS(=O)(=O)c1ccccc1)CCC2` [Example 54] were 57% and 82%.
For `Cc1cccc(CN(C(=O)C2CC2c2ccccc2)c2ccc3c(c2)C(NS(=O)(=O)c2ccccc2)CCC3)n1` (stereo not shown) [Example 7], in that order: 43% and 68%.
For `Cc1cccc(CN(C(=O)[C@@H]2C[C@H]2c2ccccc2)c2ccc3c(c2)[C@@H](NS(=O)(=O)c2cccc(Cl)c2)CCC3)n1` [Example 14], the inhibition at 0.1 µM is, setting by setting: under setting [1], 42%; under setting [2], 81%.
Taken in the same sequence, the figures for `Cn1ccnc1CN(C(=O)[C@@H]1C[C@H]1c1ccc(C(F)(F)F)cc1)c1ccc2c(c1)[C@@H](NS(=O)(=O)c1ccccc1F)CCC2` [Example 43] were 47% and 72%.
Taken in the same sequence, the figures for `Cn1ccnc1CN(C(=O)[C@@H]1C[C@H]1c1ccc(Cl)cc1)c1ccc2c(c1)[C@@H](NS(=O)(=O)c1ccccc1)CCC2` [Example 44] were 71% and 92%.
Taken in the same sequence, the figures for `Cc1cccc(CN(C(=O)[C@@H]2C[C@H]2c2ccc(C(F)(F)F)cc2)c2ccc3c(c2)[C@@H](NS(=O)(=O)c2ccccc2F)CCC3)n1` [Example 39] were 50% and 69%.
Take `Cc1ncc(CN(C(=O)C2CC2c2ccccc2)c2ccc3c(c2)C(NS(=O)(=O)c2ccc(F)cc2)CCC3)n1CC(C)C` (stereo not shown) [Example 5]: the inhibition at 0.1 µM is, setting by setting: under setting [1], 39%; under setting [2], 50%.
Taken in the same sequence, the figures for `Cc1cccc(CN(C(=O)[C@@H]2C[C@H]2c2ccccc2)c2ccc3c(c2)[C@@H](NS(=O)(=O)c2ccccc2)CCC3)n1` [Example 12] were 57% and 96%.
Taken in the same sequence, the figures for `Cc1cccc(CN(C(=O)C2CC2c2ccccc2)c2ccc3c(c2)C(NS(=O)(=O)c2ccc(F)cc2)CCC3)n1` (stereo not shown) [Example 10] were 24% and 53%.
For `Cn1ccnc1CN(C(=O)[C@@H]1C[C@H]1c1ccc(F)cc1)c1ccc2c(c1)[C@@H](NS(=O)(=O)c1ccccc1F)CCC2` [Example 29], in that order: 68% and 78%.
Turning to `Cn1ccnc1CN(C(=O)[C@@H]1C[C@H]1c1ccc(F)cc1)c1ccc2c(c1)[C@@H](NS(=O)(=O)c1ccc(F)c(Cl)c1)CCC2` [Example 32], the inhibition at 0.1 µM under setting [1] was found to be 70% and the inhibition at 0.1 µM under setting [2] was found to be 91%.
For `Cc1cccc(CN(C(=O)[C@@H]2C[C@H]2c2ccccc2)c2ccc3c(c2)[C@@H](NS(=O)(=O)c2ccc(Cl)cc2)CCC3)n1` [Example 16], in that order: 42% and 80%.
